Experimental data as given in patent US20230278972A1, “SUBSTITUTED HALOALKYL SULFONANILIDE HERBICIDES” (FMC Corporation, priority 2020, published 2023).

Tests used:
Assay type in all cases: in vivo
[1] = system: Oat, Wild (wild oat, Avena fatua); assay: Test A1 preemergence, Oat, Wild
How it was run: (§1)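 Seeds were first planted into a blend of loam soil and sand and given a preemergence directed soil spray. In parallel, pots of the same soil were sown for postemergence application once plants reached 2 to 10 cm and the one- to two-leaf stage. Both used surfactant-containing non-phytotoxic solvent formulations.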

[2] = system: wheat (Triticum aestivum); assay: Test A1 preemergence, wheat
How it was run: as §1

[3] = system: barnyardgrass (Echinochloa crus-galli); assay: Test B1 flooded paddy test, barnyardgrass; conditions: 250 g ai/ha, Flood, applied to paddy water, 2-leaf stage, visually evaluated after 10 to 14 days
Text: (§2) A dash (-) response means no test result.

[4] = system: Oat, Wild (wild oat, Avena fatua); assay: Test A1 postemergence, Oat, Wild; conditions: Postemergence
How it was run: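 Plants were grown in a loam soil/sand blend, with test chemicals formulated in a non-phytotoxic solvent mixture containing surfactant. Preemergence treatment (corn) was a directed soil spray at planting. Postemergence treatment was applied to plants 2 to 10 cm tall at the one- to two-leaf stage.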

[5] = system: Pigweed, Palmer (palmer amaranth, palmer pigweed, Amaranthus palmeri); assay: Test A1 preemergence, Pigweed, Palmer
How it was run: as §1

kochia (Bassia scoparia) = assay: Test A1 preemergence, kochia
How it was run: as §1

soybean (Glycine max) = assay: Test A1 preemergence, soybean
How it was run: as §1

[6] = system: Ryegrass, Italian (Italian ryegrass, Lolium multiflorum); assay: Test A1 postemergence, Ryegrass, Italian; conditions: Postemergence
How it was run: (§3)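 Test compounds were formulated in a non-phytotoxic solvent mixture containing a surfactant. For preemergence, seeds sown in a loam soil–sand blend received a directed soil spray. For postemergence, potted plants in the same soil, 2 to 10 cm tall at the one- to two-leaf stage, were sprayed.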

[7] = system: ducksalad (Heteranthera limosa); assay: Test B1 flooded paddy test, ducksalad; conditions: 250 g ai/ha, Flood, applied to paddy water, 2-leaf stage, visually evaluated after 10 to 14 days
Text: as §2

[8] = system: horseweed (Erigeron canadensis); assay: Test A1 postemergence, horseweed; conditions: Postemergence
How it was run: as §3

[9] = 31 g ai/ha, 0 to 100 scale (0 no effect, 100 complete control)
[10] = 125 g ai/ha, 0 to 100 scale, 0 no effect, 100 complete control
[11] = 31 g ai/ha, 0 to 100 scale (0 no effect, 100 complete control), 10 days

| Structure (SMILES) | Plant response rating, Oat, Wild [1, 9] | Plant response rating, Oat, Wild [1, 10] | Plant response rating, Wheat [2, 9] | Plant response rating, Wheat [2, 10] | Plant response rating, Barnyardgrass (0 to 100 scale, 0 is no effect, 100 is complete control) [3] | Plant response rating, Oat, Wild [4, 11] | Plant response rating, Oat, Wild ([4]; 125 g ai/ha, 0 to 100 scale) | Plant response rating, Pigweed, Palmer [5, 9] | Plant response rating, Pigweed, Palmer [5, 10] | Plant response rating, Kochia (kochia (Bassia scoparia); [9]) | Plant response rating, Kochia (kochia (Bassia scoparia); [10]) | Plant response rating, Soybean (soybean (Glycine max); [9]) | Plant response rating, Soybean (soybean (Glycine max); [10]) | Plant response rating, Ryegrass, Italian [6, 11] | Plant response rating, Ryegrass, Italian ([6]; 125 g ai/ha, 0 to 100 scale) | Plant response rating, Ducksalad (0 to 100 scale, 0 is no effect, 100 is complete control) [7] | Plant response rating, Horseweed [8, 11] | Plant response rating, Horseweed ([8]; 125 g ai/ha, 0 to 100 scale) |
| --- | --- | --- | --- | --- | --- | --- | --- | --- | --- | --- | --- | --- | --- | --- | --- | --- | --- | --- |
| CCOC(=O)N(c1cc(C(=O)N2C[C@@H](C)O[C@@H](C)C2)c(C)c(C)c1C)S(=O)(=O)C(F)(F)F [Compound 332] | 0 | 20 | 10 | 40 | 98 | 0 | 30 | 60 | 90 | 20 | 60 | 20 | 70 | 0 | 50 | 80 | 60 | 80 |
| CCOC1CC(c2cc(N(COC(=O)C(C)(C)C)S(=O)(=O)C(F)(F)F)c(C)cc2C)=NO1 (centres unmarked) [Compound 339] | 0 | 0 | 0 | 0 | 95 | 0 | 0 | 30 | 100 | 0 | 90 | 0 | 0 | 0 | 50 | 65 | 100 | 100 |
| Cc1c(NS(=O)(=O)C(F)(F)F)cc(C(=O)N2CCOCC2)c(C)c1C [Compound 289, 1,1,1-Trifluoro-N-[2,3,4-trimethyl-5-(4-morpholinylcarbonyl)phenyl]methanesulfonamide] | 20 | 50 | 30 | 80 | 85 | – | 20 | 90 | 100 | 20 | 80 | 20 | 60 | 30 | 60 | 95 | 80 | 90 |
| CCOC(=O)N(c1cc(C(=O)N2CCOCC2)c(C)c(C)c1C)S(=O)(=O)C(F)(F)F [Compound 325] | 0 | 70 | 20 | 60 | 95 | 0 | 10 | 80 | 100 | 20 | 70 | 0 | 60 | 0 | 60 | 95 | 90 | 90 |
| Cc1cc(C)c(N(COC(=O)C(C)(C)C)S(=O)(=O)C(F)(F)F)cc1C(=O)N1CCC(F)(F)CC1 [Compound 350] | 0 | 10 | 0 | 10 | 90 | 0 | 0 | 20 | 60 | 20 | 70 | 0 | 0 | 30 | 30 | 80 | 90 | 100 |
| Cc1cc(Br)c(C2=NOC3CCCC23)cc1NS(=O)(=O)C(F)(F)F (centres unmarked) [Compound 302] | 0 | 20 | 0 | 20 | 0 | 0 | 0 | 20 | 50 | 30 | 80 | 0 | 20 | 0 | 0 | 70 | 10 | 40 |
| COCC1CC(c2cc(NS(=O)(=O)C(F)(F)F)c(C)cc2C)=NO1 (centres unmarked) [Compound 319] | 60 | 70 | 80 | 100 | 90 | 0 | 10 | 70 | 80 | 0 | 40 | 20 | 30 | 30 | 50 | 85 | 10 | 40 |
| Cc1cc(C)c(C2=NOC3COCC23)cc1NS(=O)(=O)C(F)(F)F (centres unmarked) [Compound 297] | 0 | 20 | 20 | 100 | 0 | 20 | 30 | 30 | 90 | 80 | 90 | 0 | 50 | 0 | 60 | 50 | 50 | 80 |
| CCOC(=O)N(c1cc(C(=O)N2CCC(C)CC2)c(C)cc1C)S(=O)(=O)C(F)(F)F [Compound 354] | 0 | 0 | 0 | 30 | 90 | 0 | 10 | 10 | 50 | 0 | 20 | 30 | 70 | 0 | 40 | 60 | 80 | 90 |
| CCOC(=O)N(c1cc(C(=O)N2CCC(c3ccccc3)CC2)c(C)cc1C)S(=O)(=O)C(F)(F)F [Compound 365] | 0 | 0 | 0 | 0 | 15 | 0 | 0 | 30 | 30 | 0 | 0 | 0 | 0 | 0 | 10 | 25 | 10 | 20 |
| Cc1cc(C)c(C2=NOC3OCCC23)cc1NS(=O)(=O)C(F)(F)F (centres unmarked) [Compound 349] | 10 | 50 | 20 | 70 | 90 | 0 | 30 | 100 | 100 | 80 | 100 | 20 | 60 | 60 | 90 | 80 | 90 | 100 |
| COc1cnn(-c2cc(NS(=O)(=O)C(F)(F)F)c(C)cc2C)c(=O)c1OC [Compound 282] | 20 | 30 | 0 | 80 | 0 | 0 | 50 | 0 | 80 | 0 | 80 | 20 | 20 | 30 | 60 | 65 | 50 | 80 |
